Test results taken from patent US11535680B2, “Targeting metastasis stem cells through a fatty acid receptor (CD36)” (FUNDACIÓ INSTITUT DE RECERCA BIOMÈDICA (IRB BARCELONA), priority 2015, dated 2022).

Key:
SCC25 tumour cells = assay: Transplants of palmitic acid-treated OSCC cells; format: in vivo, mouse; details: cells treated in culture before transplant
Procedure: NOD scid gamma (NSG) (NOD.Cg-Prkdc^scid Il2rg^tm1Wjl/SzJ) mice were purchased from Charles River and crossed in-house. All mice were housed under a regimen of 12 h light/12 h dark cycles and SPF conditions, and all procedures were evaluated and approved by the CEEA (Ethical Committee for Animal Experimentation) from the Government of Catalunya. For establishing patient-derived tumour cells, tumours were implanted subcutaneously into NOD scid gamma mice immediately after tumour resection from the patient. Once the tumours had grown, they were collected, disaggregated, and tumour cells were FACS sorted and cultured as described below. For 5-bromo-2-deoxyuridine (BrdU) labelling experiments, mice were injected intraperitoneally with a single dose of 100 μg g^−1 BrdU (Invitrogen) and then analysed at 24 h. SCC intra-tongue injection was performed as previously described (Oskarsson et al., 2014; Nieman et al., 2011). Briefly, mice were anesthetized by intraperitoneal injection with a mixture of 50 mg per kg of ketamine and 0.5 mg per kg of medetomidin, and SCC cells resuspended in 30 μl PBS were injected into each mouse tongue with a BD ultra-fine 6 mm needle. For intravenous cell injection, mice were anesthetized with continuous administration of isofluorane gas and were injected by retro-orbital injection with 100,000 cells in 100 μl PBS. Mice were monitored for the luciferase bioluminescent signal immediately after injection (T0) and once weekly thereafter with a Xenogen IVIS Imaging System-100 (Caliper Life Sciences). Briefly, animals were injected by retro-orbital injection with 50 μl of D-luciferin (Promega) diluted in 1×PBS at 5 mg ml^−1. Continuous administration of isofluorane gas was provided to ensure anesthetizing animals during imaging. Data was quantified with the Living Image software version 4.4 (Caliper Life Sciences). Quantifications were calculated with unsaturated pixels. Color scale minimum and maximum values are shown in pictures.
All cells were cultured in a humidified incubator at 37° C. with 5% CO2. […]

OSCC cells = OSCC cells exposed in culture to palmitic acid, CD36+ cells by flow cytometry; format: cell-based, human; details: 2 days, 0.4 mM palmitic acid
Procedure: All cells were cultured in a humidified incubator at 37° C. with 5% CO2. SCC-25 (ATCC^R CRL-168™) and patient-derived cells (VDH-00, VDH-01 and VDH-02) were grown in keratinocyte serum-free media (KSFM, GIBCO) supplemented with 5 μg ml^−1 penicillin/streptomycin, 0.025 mg ml^−1 bovine pituitary extract and 0.2 μg ml^−1 of hEGF. JHU-029 cells (The Johns Hopkins University) were grown in RPMI (GIBCO) supplemented with 5 μg ml^−1 penicillin/streptomycin and 10% foetal bovine serum (FBS; GIBCO). FaDu (ATCC^R HTB-43™) and Detroit (ATCC^R CCL138™) cells were grown in EMEM (LONZA) supplemented with 5 μg ml^−1 penicillin/streptomycin and 10% FBS (GIBCO). MCF-7 cells (ATCC^r HTB-22™) were grown in EMEM (LONZA) supplemented with 5 mg ml^−1 penicillin/streptomycin, 0.01 mg ml^−1 human recombinant insulin and 10% FBS (GIBCO). The 501mel human cell line (kindly provided by Dr. Claudia Wellbrock, Manchester Cancer Research Centre, The University of Manchester, UK) was grown in DMEM supplemented with 5 mg ml^−1 penicillin/streptomycin and 10% FBS (GIBCO). HNACFS (Head and Neck tumour associated fibroblasts) were grown in DMEM supplemented with 5 mg ml^−1 penicillin/streptomycin, 10% FBS (GIBCO) and 1× insulin transferrin selenium G supplement (Invitrogen). OP9 cells were cultured and differentiated to adipocytes as previously described (Wolins et al., 2006). […]

OSCC cell lines = assay: shRNA-mediated CD36 depletion in orthotopic OSCC xenografts; format: in vivo, mouse; details: FaDu cells
Procedure: NOD scid gamma (NSG) (NOD.Cg-Prkdc^scid Il2rg^tm1Wjl/SzJ) mice were purchased from Charles River and crossed in-house. All mice were housed under a regimen of 12 h light/12 h dark cycles and SPF conditions, and all procedures were evaluated and approved by the CEEA (Ethical Committee for Animal Experimentation) from the Government of Catalunya. For establishing patient-derived tumour cells, tumours were implanted subcutaneously into NOD scid gamma mice immediately after tumour resection from the patient. Once the tumours had grown, they were collected, disaggregated, and tumour cells were FACS sorted and cultured as described below. For 5-bromo-2-deoxyuridine (BrdU) labelling experiments, mice were injected intraperitoneally with a single dose of 100 μg g^−1 BrdU (Invitrogen) and then analysed at 24 h. SCC intra-tongue injection was performed as previously described (Oskarsson et al., 2014; Nieman et al., 2011). […] Mice were monitored for the luciferase bioluminescent signal immediately after injection (T0) and once weekly thereafter with a Xenogen IVIS Imaging System-100 (Caliper Life Sciences). […] Data was quantified with the Living Image software version 4.4 (Caliper Life Sciences). Quantifications were calculated with unsaturated pixels. […]

Compound	inoculated mice with lung metastasis (SCC25 tumour cells) [%]	primary tumour growth (SCC25 tumour cells)	size and frequency of the LN metastasis (SCC25 tumour cells)	percentage of CD36+ cells in culture (OSCC cells)	lung metastasis (ability to colonize the lungs) (OSCC cell lines)
CCCCCCCCCCCCCCCC(=O)O [PA, palmitic acid]	10	without any effect	significantly boosted	robustly induced	–
shRNACD36 #99: lentiviral shRNA targeting CD36 (Sigma Aldrich), SEQ ID NO: 2 (CCGACGTTAATCTGAAAGGA)	–	–	–	–	absent
